Measured values reported in the supplement of paper PMC10307832.

Tests used:
Test in all cases: relative viability (nuclei count vs DMSO), 5 days (fraction); higher = more cells survive
A-427 = test system: A-427
Procedure, shortened: (§1)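 Dosing by pin tool came one day after lung cancer cell lines were seeded in 1536-well plates, using either one drug or a fixed anchor-drug dose plus five library-drug doses (not always all listed) in √10 steps. After 5 days, nuclei were counted on 4× images. Relative viability is treated-well nuclei count divided by vehicle-well nuclei count, and values are medians of duplicate plates.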

NCI-H1651 = test system: NCI-H1651
Procedure, shortened: as §1

LK-2 = test system: LK-2
Procedure, shortened: as §1

NCI-H1648 = test system: NCI-H1648
Procedure, shortened: as §1

NCI-H1755 = test system: NCI-H1755
Procedure, shortened: as §1

A549 = test system: A549
Procedure, shortened: as §1

Structure (SMILES): Cc1csc(=NC2CCCCC2)n1/N=C/c1ccc(O)c(O)c1O [MIM1] + Nc1ncn([C@H]2C[C@H](O)[C@@H](CO)O2)c(=O)n1 [Decitabine] (partner 2 µM)
- relative viability (A-427; first compound 0.2 µM): 0.583
- relative viability (A-427; first compound 0.6325 µM): 0.578
- relative viability (A-427; first compound 2 µM): 0.572
- relative viability (A-427; first compound 6.325 µM): 0.541
- relative viability (A-427; first compound 20 µM): 0.308
- relative viability (NCI-H1651; first compound 0.2 µM): 0.608
- relative viability (NCI-H1651; first compound 0.6325 µM): 0.524
- relative viability (NCI-H1651; first compound 2 µM): 0.56
- relative viability (NCI-H1651; first compound 6.325 µM): 0.509
- relative viability (NCI-H1651; first compound 20 µM): 0.306
- relative viability (LK-2; first compound 0.2 µM): 0.343
- relative viability (LK-2; first compound 0.6325 µM): 0.288
- relative viability (LK-2; first compound 2 µM): 0.246
- relative viability (LK-2; first compound 6.325 µM): 0.346
- relative viability (LK-2; first compound 20 µM): 0.163
- relative viability (NCI-H1648; first compound 0.2 µM): 0.523
- relative viability (NCI-H1648; first compound 0.6325 µM): 0.376
- relative viability (NCI-H1648; first compound 2 µM): 0.486
- relative viability (NCI-H1648; first compound 6.325 µM): 0.382
- relative viability (NCI-H1648; first compound 20 µM): 0.35
- relative viability (NCI-H1755; first compound 0.2 µM): 0.724
- relative viability (NCI-H1755; first compound 0.6325 µM): 0.694
- relative viability (NCI-H1755; first compound 2 µM): 0.727
- relative viability (NCI-H1755; first compound 6.325 µM): 0.657
- relative viability (NCI-H1755; first compound 20 µM): 0.549
- relative viability (A549; first compound 0.2 µM): 0.217
- relative viability (A549; first compound 0.6325 µM): 0.208
- relative viability (A549; first compound 2 µM): 0.353
- relative viability (A549; first compound 6.325 µM): 0.272
- relative viability (A549; first compound 20 µM): 0.0686

Structure (SMILES): CCNC(=O)c1noc(-c2cc(C(C)C)c(O)cc2O)c1-c1ccc(CN2CCOCC2)cc1 [Luminespib] + Nc1ncn([C@H]2C[C@H](O)[C@@H](CO)O2)c(=O)n1 [Decitabine] (partner 2 µM)
- relative viability (A-427; first compound 0.002 µM): 0.611
- relative viability (A-427; first compound 0.006325 µM): 0.514
- relative viability (A-427; first compound 0.02 µM): 0.446
- relative viability (A-427; first compound 0.06325 µM): 0.599
- relative viability (A-427; first compound 0.2 µM): 0.269
- relative viability (NCI-H1651; first compound 0.002 µM): 0.612
- relative viability (NCI-H1651; first compound 0.006325 µM): 0.553
- relative viability (NCI-H1651; first compound 0.02 µM): 0.594
- relative viability (NCI-H1651; first compound 0.06325 µM): 0.469
- relative viability (NCI-H1651; first compound 0.2 µM): 0.226
- relative viability (LK-2; first compound 0.002 µM): 0.32
- relative viability (LK-2; first compound 0.006325 µM): 0.268
- relative viability (LK-2; first compound 0.02 µM): 0.192
- relative viability (LK-2; first compound 0.06325 µM): 0.0898
- relative viability (LK-2; first compound 0.2 µM): 0.0914
- relative viability (NCI-H1648; first compound 0.002 µM): 0.534
- relative viability (NCI-H1648; first compound 0.006325 µM): 0.569
- relative viability (NCI-H1648; first compound 0.02 µM): 0.458
- relative viability (NCI-H1648; first compound 0.06325 µM): 0.489
- relative viability (NCI-H1648; first compound 0.2 µM): 0.301
- relative viability (NCI-H1755; first compound 0.002 µM): 0.673
- relative viability (NCI-H1755; first compound 0.006325 µM): 0.691
- relative viability (NCI-H1755; first compound 0.02 µM): 0.696
- relative viability (NCI-H1755; first compound 0.06325 µM): 0.719
- relative viability (NCI-H1755; first compound 0.2 µM): 0.649
- relative viability (A549; first compound 0.002 µM): 0.232
- relative viability (A549; first compound 0.006325 µM): 0.297
- relative viability (A549; first compound 0.02 µM): 0.191
- relative viability (A549; first compound 0.06325 µM): 0.0306
- relative viability (A549; first compound 0.2 µM): 0.0224

Structure (SMILES): Cc1cn(-c2cc(NC(=O)c3ccc(C)c(Nc4nccc(-c5cccnc5)n4)c3)cc(C(F)(F)F)c2)cn1 [Nilotinib] + Nc1ncn([C@H]2C[C@H](O)[C@@H](CO)O2)c(=O)n1 [Decitabine] (partner 2 µM)
- relative viability (A-427; first compound 0.001 µM): 0.586
- relative viability (A-427; first compound 0.003162 µM): 0.565
- relative viability (A-427; first compound 0.01 µM): 0.658
- relative viability (A-427; first compound 0.03162 µM): 0.663
- relative viability (A-427; first compound 0.1 µM): 0.695
- relative viability (NCI-H1651; first compound 0.001 µM): 0.572
- relative viability (NCI-H1651; first compound 0.003162 µM): 0.734
- relative viability (NCI-H1651; first compound 0.01 µM): 0.689
- relative viability (NCI-H1651; first compound 0.03162 µM): 0.535
- relative viability (NCI-H1651; first compound 0.1 µM): 0.288
- relative viability (LK-2; first compound 0.001 µM): 0.327
- relative viability (LK-2; first compound 0.003162 µM): 0.338
- relative viability (LK-2; first compound 0.01 µM): 0.252
- relative viability (LK-2; first compound 0.03162 µM): 0.236
- relative viability (LK-2; first compound 0.1 µM): 0.26
- relative viability (NCI-H1648; first compound 0.001 µM): 0.588
- relative viability (NCI-H1648; first compound 0.003162 µM): 0.496
- relative viability (NCI-H1648; first compound 0.01 µM): 0.476
- relative viability (NCI-H1648; first compound 0.03162 µM): 0.497
- relative viability (NCI-H1648; first compound 0.1 µM): 0.469
- relative viability (NCI-H1755; first compound 0.001 µM): 0.742
- relative viability (NCI-H1755; first compound 0.003162 µM): 0.81
- relative viability (NCI-H1755; first compound 0.01 µM): 0.78
- relative viability (NCI-H1755; first compound 0.03162 µM): 0.961
- relative viability (NCI-H1755; first compound 0.1 µM): 0.846
- relative viability (A549; first compound 0.001 µM): 0.199
- relative viability (A549; first compound 0.01 µM): 0.386
- relative viability (A549; first compound 0.03162 µM): 0.198
- relative viability (A549; first compound 0.1 µM): 0.116
